Test [1] deals with T1, human STAT6 (truncated, aa122-658, with N-terminal His-tag) (Homo sapiens, UniProt P42226).
T1 construct: Human STAT6 (truncated, aa122-658, with N-terminal His-tag, expressed in insect cells); His-tag (N); made in house; host or cells: insect cells
T1 sequence (P42226 122-658): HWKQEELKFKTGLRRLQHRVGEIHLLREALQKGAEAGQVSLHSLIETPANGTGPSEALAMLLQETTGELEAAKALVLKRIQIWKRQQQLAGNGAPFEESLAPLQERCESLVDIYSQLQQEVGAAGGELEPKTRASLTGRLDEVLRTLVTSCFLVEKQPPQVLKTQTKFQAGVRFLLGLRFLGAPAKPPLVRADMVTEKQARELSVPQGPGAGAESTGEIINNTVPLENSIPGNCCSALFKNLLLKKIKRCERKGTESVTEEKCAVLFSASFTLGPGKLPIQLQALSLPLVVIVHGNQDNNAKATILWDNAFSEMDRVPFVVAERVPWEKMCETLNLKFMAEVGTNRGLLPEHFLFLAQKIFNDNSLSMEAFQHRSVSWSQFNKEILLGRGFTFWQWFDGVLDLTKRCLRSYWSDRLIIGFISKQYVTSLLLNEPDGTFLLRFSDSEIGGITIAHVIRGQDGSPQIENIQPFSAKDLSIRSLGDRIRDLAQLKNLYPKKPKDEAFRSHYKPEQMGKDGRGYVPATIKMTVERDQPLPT
As to the kind of experiment: Surface Plasmon Resonance (SPR) assay: binding of compounds to immobilized human STAT6. Particulars: immobilized human STAT6 (aa122-658), 25° C.; geometric mean. The method, then: SPR was used to confirm and quantify binding of compounds to human STAT6. Biacore instruments from the 8K-series (Cytiva) were used, and measurements were performed at 25° C. Human STAT6 (truncated, aa122-658, with N-terminal His-tag, expressed in insect cells) was immobilized in the active flow cells on a CM5 chip using amine-coupling (default settings) at 10 μg/ml in 10 mM acetate buffer pH 5.5, at a contact time of 120-420 sec. and a flow rate of […]. Reference flow cells were deactivated using blank immobilization. PBS-P+ (Cytiva) supplemented with 2% DMSO was used as running buffer, and solvent correction was applied. Compounds were tested by multi-cycle kinetics injections using a contact time of 60 sec., dissociation time of up to 300 sec., and a flow rate of […].
Solvent-corrected, reference-subtracted and blank-corrected data was processed and binding isotherms were fitted according to a single report point from each sensorgram (Standard: Late binding (5 sec. before injection end); alternative: Earlier report point according to binding profile). Data fitting was done both with unfixed Rmax and with Rmax fixed to the theoretical value* assuming 1:1 binding to allow processing of data from both weak and strong binders as well as to evaluate binding stoichiometry.
Positive controls were run at the beginning, during, and at the end of the screen to evaluate surface activity. Generally surface activity was only affected to a minor degree, and no corrections were applied.
*Equation for calculation of the theoretical Rmax (Theoretical Rmax=(MW Analyte/MW Ligand) x immobilization level).
The sensorgrams for Examples 2a1, 2t1, 2m1, and 2a2 are shown below (where RU is plotted vs. time in seconds; dotted lines/points were excluded from the analysis due to effects from non-specific binding).

For test [2], the target named is T2, STAT6 (endogenous, HiBiT-tagged) in HeLa LgBiT clone 4.14 cells (Homo sapiens, UniProt P42226).
T2 construct: These cells express endogenous STAT6; host or cells: HeLa LgBiT clone 4.14
T2 sequence (P42226 1-847): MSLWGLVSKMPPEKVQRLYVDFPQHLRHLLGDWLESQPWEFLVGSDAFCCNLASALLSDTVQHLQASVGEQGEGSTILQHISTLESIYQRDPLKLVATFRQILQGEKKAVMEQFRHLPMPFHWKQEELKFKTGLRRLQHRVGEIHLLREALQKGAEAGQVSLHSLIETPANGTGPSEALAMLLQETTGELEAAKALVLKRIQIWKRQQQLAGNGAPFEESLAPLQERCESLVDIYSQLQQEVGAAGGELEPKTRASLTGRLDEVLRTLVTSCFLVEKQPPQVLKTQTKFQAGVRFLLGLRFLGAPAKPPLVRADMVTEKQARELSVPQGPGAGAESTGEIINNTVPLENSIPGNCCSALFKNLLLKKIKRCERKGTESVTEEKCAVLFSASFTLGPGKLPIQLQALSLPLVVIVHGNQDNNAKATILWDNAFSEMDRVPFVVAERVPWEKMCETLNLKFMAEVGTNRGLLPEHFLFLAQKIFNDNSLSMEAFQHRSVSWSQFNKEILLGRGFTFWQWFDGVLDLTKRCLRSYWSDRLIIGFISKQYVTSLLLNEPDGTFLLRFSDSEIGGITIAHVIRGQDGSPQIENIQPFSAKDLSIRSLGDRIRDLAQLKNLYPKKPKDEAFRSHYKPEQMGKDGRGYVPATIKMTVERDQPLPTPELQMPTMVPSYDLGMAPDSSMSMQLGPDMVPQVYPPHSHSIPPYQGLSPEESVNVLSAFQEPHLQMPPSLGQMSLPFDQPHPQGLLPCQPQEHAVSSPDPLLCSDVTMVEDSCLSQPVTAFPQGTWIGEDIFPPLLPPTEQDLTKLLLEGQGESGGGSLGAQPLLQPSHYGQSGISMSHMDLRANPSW
As to the kind of experiment: STAT6 Degrader Assay (HiBiT based, HeLa LgBiT clone 4.14 cells, luminescence, DC50). It counts as cell-based. The following applies: geometric mean; for Emax: Emax provided for test compounds with <80% Emax (and 2c15), read-out: STAT6 degradation Emax. The essentials:
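HeLa LgBiT clone 4.14 cells carry CRISPR-inserted HiBiT on endogenous STAT6; 5000 cells/well were exposed to compound for 4-24 h at 37 °C, 5% CO2. Nano-Glo substrate added for 0.5 h; luminescence reflects remaining STAT6, with terfenadine ([…]) wells defining 100% degradation.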
In general terms: HiBiT is a short tag that completes a luciferase, so light tracks the accessible tagged protein.

In test [3] the test system is Eotaxin-3 (CCL26) release in human whole blood stimulated with IL-4. Kind of test: Human Whole Blood Eotaxin-3 Assay (IL-4 stimulated, inhibition of eotaxin-3 release). In kind it is cell-based. The following applies: Homo sapiens, EC50 provided for test compounds with >80% Emax, geometric mean across assay runs and batches. In a few lines: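 Lithium-heparin human whole blood preincubated 2 h at 37 °C with compounds (4-fold serial dilution, triplicate, 0.5% DMSO final), then stimulated with 400 pM IL-4 for 48 h. Eotaxin-3 (CCL26) in supernatant quantified by MSD immunoassay.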

The structures appear in SMILES notation.

As a reminder, the Kd is the concentration at which binding is half-saturated. Read a high Kd as lower affinity. By Emax is commonly meant the maximal effect, on the per cent scale that the assay sets. As usually defined, the EC50 is the midpoint of the concentration-response curve. A low value points to a more potent agent. `Cn1c(CN2CCC(c3ccc(C(=O)N4CCC(CN5CCN(c6ccc(NC7CCC(=O)NC7=O)cc6F)CC5)CC4)cc3)CC2)cc2c(-c3ccc4[nH]ncc4c3)ccnc21` (stereo not shown) [Example 2c1, 3-((4-(4-((1-(4-(1-((4-(1H-indazol-5-yl)-1-methyl-1H-pyrrolo[2,3-b]pyridin-2-yl)methyl)-piperidin-4-yl)benzoyl)piperidin-4-yl)methyl)piperazin-1-yl)-3-fluorophenyl)amino)piperidine-2,6-dione] yielded a dissociation constant Kd in test [1] of 193 nM. Also, the maximum response (Emax) in test [2] was 70 to 80%. The midpoint of the response in test [3], the EC50, lay at 556 nM.

By DC50 is commonly meant the concentration giving 50% degradation. Turning to `Cn1c(CN2CCC(c3ccc(C(=O)N4CCN(C(=O)CN5CCC(c6ccc(OC7CCC(=O)NC7=O)cc6F)CC5)CC4)cc3)CC2)cc2c(-c3ccc4[nH]ncc4c3)ccnc21` (stereo not shown) [Example 2t1, 3-(4-(1-(2-(4-(4-(1-((4-(1H-indazol-5-yl)-1-methyl-1H-pyrrolo[2,3-b]pyridin-2-yl)methyl)-piperidin-4-yl)benzoyl)piperazin-1-yl)-2-oxoethyl)piperidin-4-yl)-3-fluorophenoxy) piperidine-2,6-dione], in test [1], binding was characterised by a dissociation constant (Kd) of 105 nM. In addition, in test [2] (DC50 provided for test compounds with >80% Emax, read-out: STAT6 degradation DC50), the DC50 stood at 8.1 nM.

In test [1], `Cn1c(CN2CCC(c3ccc(C(=O)N4CCC(CN5CCC(n6ncc7cc(NC8CCC(=O)NC8=O)ccc76)CC5)CC4)cc3)CC2)cc2c(-c3ccc4[nH]ncc4c3)ccnc21` (stereo not shown) [Example 2t4, 3-((1-(1-((1-(4-(1-((4-(1H-indazol-5-yl)-1-methyl-1H-pyrrolo[2,3-b]pyridin-2-yl)methyl)-piperidin-4-yl)benzoyl)piperidin-4-yl)methyl)piperidin-4-yl)-1H-indazol-5-yl)amino)piperidine-2,6-dione] returned a Kd below 20 nM. For the same compound, in test [2], the maximal effect (Emax) is below 20%.

The values above are taken from patent US20260014147A1, “STAT6 DEGRADERS” (Gilead Sciences, Inc., priority 2024, published 2026).
